Measured values from US12168662B1, “Pyrido[4′,3′:4,5]pyrrolo[2,3-c][2,7]naphthyridines compounds as CK2 inhibitors” (KING FAISAL UNIVERSITY, priority 2023, dated 2024).

Columns and labels:
A375 (melanoma) = assay: In vitro cytotoxic activity assay (MTT); format: cell-based; settings: Homo sapiens, A-375; A375 cells, exposed for 96 hours, 50% inhibition of cell proliferation; read-out: Cytotoxicity activity IC50, A375 (melanoma)
Method: (§1) Compounds 1-16 were screened for their in vitro cytotoxic activity utilizing a 3-(4,5-dimethyl-thiazol-2-yl)-2,5-diphenyltetrazolium bromide (MTT) assay against selected cancer human cell lines consisting of PC3 (prostate), HCT116 (colon), A375 (melanoma), H1299 (lung), MIAPaCa-2 (pancreas), HL60 (leukemia), MCF7 (breast), MDA-MB-231 (breast) (T. Mosmann, J. Immunol. Meth., 1983, 65, 55-63). The cells were cultured at 37° C. in RMPI1640 medium supplemented with 10% fetal bovine serum, 50 IU/mL penicillin, and 50 μg/mL streptomycin in a 5% CO2 incubator. All cells were sub-cultured 3 times/week by trypsinisation. Viable cells were seeded and allowed to adhere for 12 hours before a test drug was added in 96-well plates at an initial density of 1.0×10^5 cells/mL. Tumor cell lines were separately exposed to various concentrations of the tested compounds followed by incubation at a temperature of 37° C. during 96 hours inside a medium of fresh RMPI 1640. Cells were subsequently incubated at 37° C. using MTT at 0.5 mg/mL during 4 hours. After removal of supernatant, formazan crystals were dissolved in isopropanol and the optical density was measured at 570 nm. CX-4945 was used as a positive control.

H1299 (lung) = assay: In vitro cytotoxic activity assay (MTT); format: cell-based; settings: Homo sapiens, NCI-H1299; H1299 cells, exposed for 96 hours, 50% inhibition of cell proliferation; read-out: Cytotoxicity activity IC50, H1299 (lung)
Method: as §1

HCT116 (colon) = assay: In vitro cytotoxic activity assay (MTT); format: cell-based; settings: Homo sapiens, HCT-116; HCT116 cells, exposed for 96 hours, 50% inhibition of cell proliferation; read-out: Cytotoxicity activity IC50, HCT116 (colon)
Method: as §1

HL60 (leukemia) = assay: In vitro cytotoxic activity assay (MTT); format: cell-based; settings: Homo sapiens, HL-60; HL60 cells, exposed for 96 hours, 50% inhibition of cell proliferation; read-out: Cytotoxicity activity IC50, HL60 (leukemia)
Method: as §1

MCF7 (breast) = assay: In vitro cytotoxic activity assay (MTT); format: cell-based; settings: Homo sapiens; MCF7 cells, exposed for 96 hours, 50% inhibition of cell proliferation; read-out: Cytotoxicity activity IC50, MCF7 (breast)
Method: as §1

MDA-MB-231 (breast) = assay: In vitro cytotoxic activity assay (MTT); format: cell-based; settings: Homo sapiens; MDA-MB-231 cells, exposed for 96 hours, 50% inhibition of cell proliferation; read-out: Cytotoxicity activity IC50, MDA-MB-231 (breast)
Method: as §1

MIAPaCa-2 (pancreas) = assay: In vitro cytotoxic activity assay (MTT); format: cell-based; settings: Homo sapiens, MIA PaCa-2; MIAPaCa-2 cells, exposed for 96 hours, 50% inhibition of cell proliferation; read-out: Cytotoxicity activity IC50, MIAPaCa-2 (pancreas)
Method: as §1

PC3 (prostate) = assay: In vitro cytotoxic activity assay (MTT); format: cell-based; settings: Homo sapiens, PC-3; PC3 cells, exposed for 96 hours, 50% inhibition of cell proliferation; read-out: Cytotoxicity activity IC50, PC3 (prostate)
Method: as §1

[1] = molecular target: T1, recombinant human CK2 (RRββ-holoenzyme) (Homo sapiens, UniProt P68400); assay: CK2 Kinase Assay (radiometric, [γ-33P] ATP); format: biochemical; settings: final ATP concentration 15 μM, 10 min at 30° C., eight concentrations; read-out: protein kinase CK2 activity IC50
T1 construct: purchased Millipore
Method: CK2 Kinase Assay was conducted using the protocol as described in Pierre F. et al; J. Med. Chem. 2011, 54, 635-654. The tested compounds in aqueous solution were added at a volume of 10 μL to a reaction mixture comprising 10 μL of assay dilution buffer (ADB; 20 mM MOPS, pH 7.2, 25 mM β-glycerol phosphate, 5 mM EGTA, 1 mM sodium orthovanadate, and 1 mM dithiothreitol), 10 μL of substrate peptide (RRRDDDSDDD, dissolved in ADB at a concentration of 1 mM), 10 μL of recombinant human CK2 (RRββ-holoenzyme, 25 ng dissolved in ADB; Millipore). Reactions were initiated by the addition of 10 μL of ATP solution (90% 75 mMMgC2, 75 μM ATP (final ATP concentration: 15 μM) dissolved in ADB; 10% [γ-33P] ATP (stock 1 mCi/100 μL; 3000 Ci/mmol (Perkin-Elmer) and maintained for 10 min at 30° C. The reactions were quenched with 100 μL of 0.75% phosphoric acid and then transferred to and filtered through a phosphor cellulose filter plate (Millipore). After washing each well five times with 0.75% phosphoric acid, the plate was dried under vacuum for 5 min and, following the addition of 15 μL of scintillation fluid to each well, the residual radioactivity was measured using a Wallac luminescence counter. The IC50 values were derived from eight concentrations of test inhibitors.

T1 sequence (P68400 whole entry): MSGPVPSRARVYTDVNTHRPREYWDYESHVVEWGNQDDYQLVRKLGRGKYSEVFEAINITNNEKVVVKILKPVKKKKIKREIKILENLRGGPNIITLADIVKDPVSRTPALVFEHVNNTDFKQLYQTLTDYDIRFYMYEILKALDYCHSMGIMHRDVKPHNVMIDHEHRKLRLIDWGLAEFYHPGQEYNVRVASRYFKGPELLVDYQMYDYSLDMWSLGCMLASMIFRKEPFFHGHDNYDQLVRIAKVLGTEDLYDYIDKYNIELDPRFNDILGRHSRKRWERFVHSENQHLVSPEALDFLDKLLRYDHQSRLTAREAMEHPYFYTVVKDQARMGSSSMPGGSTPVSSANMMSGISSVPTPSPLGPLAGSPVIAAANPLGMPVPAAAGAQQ
T1 sequence (P67870 whole entry partner): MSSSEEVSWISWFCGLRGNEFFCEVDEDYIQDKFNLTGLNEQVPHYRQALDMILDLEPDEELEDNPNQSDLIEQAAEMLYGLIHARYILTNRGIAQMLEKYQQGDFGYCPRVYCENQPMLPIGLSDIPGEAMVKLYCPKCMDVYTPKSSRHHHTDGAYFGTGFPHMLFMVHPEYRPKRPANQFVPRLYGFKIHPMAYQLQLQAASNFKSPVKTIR

Clc1cccc(Nc2nc3[nH]c4cnccc4c3c3ccncc23)c1 [Compound 1, N-(3-chlorophenyl)-7H-pyrido[4′,3′:4,5]pyrrolo[2,3-c][2,7]naphthyridin-5-amine] gave an IC50 (A375 (melanoma)) of 4.7 µM, an IC50 (H1299 (lung)) of 1800 nM and an IC50 (HCT116 (colon)) of 1500 nM. For the same compound, the IC50 (HL60 (leukemia)) was 3.3 µM, the IC50 (MCF7 (breast)) was 5.2 µM and the IC50 (MDA-MB-231 (breast)) was 4.4 µM. For the same compound, the IC50 (MIAPaCa-2 (pancreas)) was 2400 nM, the IC50 (PC3 (prostate)) was 1300 nM and the IC50 [1] was 334 nM.
